TGI and GI50 data for 19 compounds are collected here from PubChem BioAssay (NCI).

Among the test systems are DLD-1 colon; M19-MEL melanoma; HOP-18 NSCLC; KM20L2 colon; RXF-631 renal; XF 498 CNS; DMS 114 small cell lung; SNB-78 CNS; MDA-N; P388/ADR leukemia.
What all share (test): NCI tumour cell line growth inhibition, 48 h

“And” between values parts separate entries of the source, which are not always exact repeats. Equal values may be shown once.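 Where inhibition never reached the appropriate level, the endpoint shown equals the highest concentration tested. Otherwise, values were interpolated linearly from a five-concentration, 48-hour dose response in 96-well plates. GI50 is the concentration that inhibits growth by half. TGI: concentration producing complete growth inhibition.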

On to `COc1ccc(C(=O)Nc2ccc(S(=O)(=O)NCC(=O)O)cc2)cc1`, for which the TGI with DLD-1 colon, with M19-MEL melanoma, with HOP-18 NSCLC, with KM20L2 colon, in the assay with RXF-631 renal and in the assay with XF 498 CNS was above 100 µM each time.

In the case of `C=CC1(c2ccccc2Cl)N/C(=C/OCC)CO1` (stereo not given), the TGI with DLD-1 colon, with DMS 114 small cell lung, in the assay on M19-MEL melanoma, in the assay with SNB-78 CNS, with HOP-18 NSCLC and with KM20L2 colon was above 100 µM in each case. For the same compound, the TGI in the assay on RXF-631 renal and in the assay on XF 498 CNS was above 100 µM in each case.

Take `COc1ccc2[nH]c3c(C)c4cc[n+](C)cc4c(C)c3c2c1`: the GI50 is 0.889 µM and 0.835 µM in the assay on DLD-1 colon; 0.104 µM in the assay with DMS 114 small cell lung; 0.327 µM in the assay on M19-MEL melanoma; 0.478 µM and 0.243 µM with SNB-78 CNS; 1.68 µM and 1.35 µM in the assay on KM20L2 colon; 9.89 µM and 2.19 µM and 14.7 µM with MDA-N. Further, in the assay on P388/ADR leukemia, the GI50 is 20.8 µM. The TGI with DMS 114 small cell lung is 2.52 µM and 1.72 µM and 1.56 µM; in the assay on M19-MEL melanoma, 3.69 µM and 2.48 µM and 2.89 µM; in the assay on KM20L2 colon, 34.2 µM [middle of 4 runs]; in the assay on MDA-N, > 100 µM and 84.9 µM and 63 µM; in the assay on P388/ADR leukemia it was > 56.2 µM and > 75 µM and 125 µM.

With `N.N.N.N.N.N#N.[Cl-].[Os+7]`, the GI50 in the assay on DLD-1 colon, with SNB-78 CNS, with HOP-18 NSCLC and in the assay on KM20L2 colon was above 100 µM in each case. Besides, the TGI in the assay on DLD-1 colon, with SNB-78 CNS, in the assay on HOP-18 NSCLC and in the assay with KM20L2 colon was above 100 µM in each case.

Take `O=C(c1ccccn1)c1nc(-c2ccc(Cl)c(Cl)c2)nc2ccc(Cl)cc12`: the TGI in the assay with DLD-1 colon was above 100 µM; in the assay on DMS 114 small cell lung it was above 100 µM; with M19-MEL melanoma, above 100 µM; with SNB-78 CNS, above 100 µM; with KM20L2 colon, above 100 µM; in the assay on XF 498 CNS, 55.3 µM.

`Nc1c(S(=O)(=O)O)cc(Nc2cccc(S(N)(=O)=O)c2)c2c1C(=O)c1ccccc1C2=O` came in with a TGI in the assay on MDA-N of 42.8 µM.

Take `O=C(O)c1c([N+](=O)[O-])cc(C(F)(F)F)cc1[N+](=O)[O-]`: the TGI in the assay with M19-MEL melanoma, in the assay on SNB-78 CNS, with KM20L2 colon, in the assay with RXF-631 renal and in the assay on XF 498 CNS was above 100 µM in each case.

The compound `Nc1ccc(-c2ccc(Nc3cc(S(=O)(=O)O)c(N)c4c3C(=O)c3ccccc3C4=O)cc2)c(S(=O)(=O)O)c1` displayed a TGI in the assay on MDA-N above 100 µM.

Take `C/C=C/C(=O)[C@@H](O)C(C)C`: the TGI with M19-MEL melanoma, in the assay with SNB-78 CNS and with KM20L2 colon was above 100 µM each time.

On to `Cc1cc2c(=O)cc(-c3ccc(C(F)(F)F)cc3)oc2c(C(=O)O)c1C`, for which the TGI with DLD-1 colon, with DMS 114 small cell lung, with M19-MEL melanoma, in the assay with SNB-78 CNS, in the assay on HOP-18 NSCLC and in the assay with KM20L2 colon was above 100 µM each time. Besides, the TGI in the assay on RXF-631 renal and in the assay on XF 498 CNS was above 100 µM in each case.

Regarding `CN(C)CCNC(=O)c1cccc2ccc(-c3cccnc3)nc12`, the TGI in the assay on DLD-1 colon worked out at 60.4 µM; in the assay with DMS 114 small cell lung it was 18.6 µM; in the assay on M19-MEL melanoma, 16.9 µM; with SNB-78 CNS, 72.4 µM; in the assay on HOP-18 NSCLC it was 62.9 µM; in the assay with RXF-631 renal, 23.1 µM.

For `O=C(N[C@@H]1C=CCC[C@@H]1c1ccccc1)OCc1ccccc1`, the TGI in the assay on DLD-1 colon was above 85.6 µM; with DMS 114 small cell lung it was 45.1 µM; in the assay with M19-MEL melanoma, 45.1 µM; in the assay on SNB-78 CNS, 93 µM; in the assay with HOP-18 NSCLC, 46.9 µM; with KM20L2 colon it was 40.6 µM. For the same compound, the TGI in the assay with XF 498 CNS amounted to 35.9 µM.

The compound `Cc1coc2c1CC1OC1(C)CCC1OC1(C)C2` (stereo not given) showed a TGI in the assay on MDA-N above 100 µM.

Consider `S=c1nc[nH]c2nc[nH]c12`, for which the TGI in the assay with DLD-1 colon was above 750 µM; in the assay with DMS 114 small cell lung it was 385 µM; in the assay on M19-MEL melanoma, above 734 µM; in the assay with SNB-78 CNS it was 670 µM; in the assay with HOP-18 NSCLC it was 644 µM; in the assay with KM20L2 colon, 691 µM. Further, the TGI is 636 µM and > 750 µM in the assay with MDA-N; 548 µM in the assay with P388/ADR leukemia; 163 µM in the assay on XF 498 CNS. Further, in the assay with MDA-N, the GI50 was 7.85 µM.

In the assay on MDA-N, `C/C(=C1/N=C(c2ccccc2)OC1=O)c1ccc(C)cc1` showed a TGI above 100 µM.

In turn, `CN(C)c1ccc(/C=C/c2ccnc3ccc4ccccc4c23)cc1` displayed a TGI with MDA-N above 100 µM.

On to `O=C(c1ccco1)c1ccccc1C(=O)c1ccco1`, for which the TGI with DLD-1 colon, in the assay with DMS 114 small cell lung, in the assay with M19-MEL melanoma, in the assay on SNB-78 CNS, with HOP-18 NSCLC and in the assay with KM20L2 colon was above 100 µM in each case. For the same compound, the TGI in the assay with RXF-631 renal and in the assay on XF 498 CNS was above 100 µM in each case.

As for `Cc1ccc(/C=N/NS(=O)(=O)c2ccccc2)cc1`, the TGI in the assay on DLD-1 colon, in the assay on DMS 114 small cell lung, in the assay with SNB-78 CNS, in the assay with HOP-18 NSCLC, with KM20L2 colon and with RXF-631 renal was above 100 µM throughout. The compound further registered a TGI in the assay with XF 498 CNS above 100 µM.

In the assay on MDA-N, `CCC(C(=O)c1cccs1)C(O)(C(F)(F)F)C(F)(F)F` (stereo not given) displayed a TGI above 100 µM.
